How the values were obtained:
[1] = tested on: healthy participants ≥ 60 years; assay: Adverse events after single dose (Appendix Table S5); type: in vivo, human
Excerpt: (§1) For further details, see the Appendix Table S10 in Appendix and the accompanying clinical protocols synopsis (Appendix Table S11).
(§2) Appendix Table S3. Overview of completed clinical studies with CNP520
(§3) Study description Population No. of Participants Dose/Frequency […]
(§4) First-in-human, randomized, 18-55 yrs 38 / 14 Single dose (10, 30, 90, […]
(§5) controlled, single and multiple CNP520 vs placebo) ascending oral dose study to Single dose (10, 90, 300,

[2] = tested on: CHO cells (wild‐type APP); assay: Cellular Aβ40 release assay; type: cell-based; details: Cricetulus griseus, inhibition of Aβ40 release, six batches, each in triplicate
Description: (§6) Cellular Aβ release assays were done in CHO cells stably transfected with human wild‐type and human APP were done as described (Neumann et al, 2015). Determinations of logD, pKa, and binding to brain homogenates were done internally at Novartis, Basel. Plasma protein binding was determined by equilibrium dialysis using diluted plasma from the corresponding species. MDR‐1‐MDCK cells were obtained from Prof. A. Berns, Netherlands Cancer Institute, Amsterdam NL, and bi‐directional transport measurements were done as described (Rueeger et al, 2011). Receptor binding assays were done against an internal receptor panel and externally at Ricerca Biosciences, Peitou, Taiwan. In vitro binding and cellular patch clamp assays for hERG were done at Preclinical Safety, Novartis, Basel.

[3] = tested on: CHO cells (“Swedish” APP); assay: Cellular Aβ40 release assay; type: cell-based; details: Cricetulus griseus, inhibition of Aβ40 release, three batches, triplicates
Description: as §6

[4] = tested on: healthy participants ≥ 60 years; assay: Adverse events after single dose (Appendix Table S6); type: in vivo, human
Excerpt: as §1, §2, §3, §4, §5

For `C[C@@]1(c2nc(NC(=O)c3ncc(C(F)(F)F)cc3Cl)ccc2F)CO[C@@](C)(C(F)(F)F)C(N)=N1` [CNP520], the “AE incidence: Ear and labyrinth disorders” value ([1]; single dose 10 mg, N = 6) was 0 (0.0) n (%), the “AE incidence: Eye disorders” value ([1]; single dose 10 mg, N = 6) was 0 (0.0) n (%) and the “AE incidence: Gastrointestinal disorders” value ([1]; single dose 10 mg, N = 6) was 1 (16.7) n (%). The “AE incidence: General disorders and administration site conditions” value ([1]; single dose 10 mg, N = 6) was 1 (16.7) n (%), the “AE incidence: Infections and infestations” value ([1]; single dose 10 mg, N = 6) was 0 (0.0) n (%) and the “AE incidence: Injury, poisoning and procedural complications” value (from here on “AE incidence: Injury”) ([1]; single dose 10 mg, N = 6) was 0 (0.0) n (%). For the same compound, the “AE incidence: Metabolism and nutrition disorders” value ([1]; single dose 10 mg, N = 6) was 1 (16.7) n (%), the “AE incidence: Nervous system disorders” value ([1]; single dose 10 mg, N = 6) was 2 (33.3) n (%) and the “AE incidence: Psychiatric disorders” value ([1]; single dose 10 mg, N = 6) was 0 (0.0) n (%). The “AE incidence: Respiratory, thoracic and mediastinal disorders” value (“AE incidence: Respiratory” below) ([1]; single dose 10 mg, N = 6) was 0 (0.0) n (%), the “AE incidence: Vascular disorders” value ([1]; single dose 10 mg, N = 6) was 0 (0.0) n (%) and the “Participants with at least one AE” value ([1]; single dose 10 mg, N = 6) was 5 (83.3) n (%). The “AE incidence: Ear and labyrinth disorders” value ([1]; single dose 90 mg, N = 6) was 0 (0.0) n (%), the “AE incidence: Eye disorders” value ([1]; single dose 90 mg, N = 6) was 1 (16.7) n (%) and the “AE incidence: Gastrointestinal disorders” value ([1]; single dose 90 mg, N = 6) was 0 (0.0) n (%). For the same compound, the “AE incidence: General disorders and administration site conditions” value ([1]; single dose 90 mg, N = 6) was 0 (0.0) n (%), the “AE incidence: Infections and infestations” value ([1]; single dose 90 mg, N = 6) was 0 (0.0) n (%) and the “AE incidence: Injury” value ([1]; single dose 90 mg, N = 6) was 0 (0.0) n (%). The “AE incidence: Metabolism and nutrition disorders” value ([1]; single dose 90 mg, N = 6) was 0 (0.0) n (%), the “AE incidence: Nervous system disorders” value ([1]; single dose 90 mg, N = 6) was 1 (16.7) n (%) and the “AE incidence: Psychiatric disorders” value ([1]; single dose 90 mg, N = 6) was 1 (16.7) n (%). The “AE incidence: Respiratory” value ([1]; single dose 90 mg, N = 6) was 0 (0.0) n (%), the “AE incidence: Vascular disorders” value ([1]; single dose 90 mg, N = 6) was 1 (16.7) n (%) and the “Participants with at least one AE” value ([1]; single dose 90 mg, N = 6) was 3 (50.0) n (%). The “AE incidence: Ear and labyrinth disorders” value ([1]; single dose 300 mg, N = 8) was 1 (12.5) n (%), the “AE incidence: Eye disorders” value ([1]; single dose 300 mg, N = 8) was 0 (0.0) n (%) and the “AE incidence: Gastrointestinal disorders” value ([1]; single dose 300 mg, N = 8) was 0 (0.0) n (%). The “AE incidence: General disorders and administration site conditions” value ([1]; single dose 300 mg, N = 8) was 0 (0.0) n (%), the “AE incidence: Infections and infestations” value ([1]; single dose 300 mg, N = 8) was 0 (0.0) n (%) and the “AE incidence: Injury” value ([1]; single dose 300 mg, N = 8) was 0 (0.0) n (%). For the same compound, the “AE incidence: Metabolism and nutrition disorders” value ([1]; single dose 300 mg, N = 8) was 0 (0.0) n (%), the “AE incidence: Nervous system disorders” value ([1]; single dose 300 mg, N = 8) was 2 (25.0) n (%) and the “AE incidence: Psychiatric disorders” value ([1]; single dose 300 mg, N = 8) was 0 (0.0) n (%). The “AE incidence: Respiratory” value ([1]; single dose 300 mg, N = 8) was 0 (0.0) n (%), the “AE incidence: Vascular disorders” value ([1]; single dose 300 mg, N = 8) was 0 (0.0) n (%) and the “Participants with at least one AE” value ([1]; single dose 300 mg, N = 8) was 6 (75.0) n (%). The “AE incidence: Ear and labyrinth disorders” value ([1]; single dose 750 mg, N = 9) was 0 (0.0) n (%), the “AE incidence: Eye disorders” value ([1]; single dose 750 mg, N = 9) was 0 (0.0) n (%) and the “AE incidence: Gastrointestinal disorders” value ([1]; single dose 750 mg, N = 9) was 2 (22.2) n (%). For the same compound, the “AE incidence: General disorders and administration site conditions” value ([1]; single dose 750 mg, N = 9) was 1 (11.1) n (%), the “AE incidence: Infections and infestations” value ([1]; single dose 750 mg, N = 9) was 0 (0.0) n (%) and the “AE incidence: Injury” value ([1]; single dose 750 mg, N = 9) was 3 (33.3) n (%). For the same compound, the “AE incidence: Metabolism and nutrition disorders” value ([1]; single dose 750 mg, N = 9) was 0 (0.0) n (%), the “AE incidence: Nervous system disorders” value ([1]; single dose 750 mg, N = 9) was 3 (33.3) n (%) and the “AE incidence: Psychiatric disorders” value ([1]; single dose 750 mg, N = 9) was 0 (0.0) n (%). The “AE incidence: Respiratory” value ([1]; single dose 750 mg, N = 9) was 0 (0.0) n (%), the “AE incidence: Vascular disorders” value ([1]; single dose 750 mg, N = 9) was 0 (0.0) n (%) and the “Participants with at least one AE” value ([1]; single dose 750 mg, N = 9) was 8 (88.9) n (%). The IC50 [2] was 0.0028 ± 0.0002 µM, the IC50 [3] was 0.044 ± 0.0004 µM and the “AE incidence: Blood and lymphatic system disorders” value ([4]; single dose 300 mg, N = 10) was 1 (10.0) n (%). For the same compound, the “AE incidence: Cardiac disorders” value ([4]; single dose 300 mg, N = 10) was 1 (10.0) n (%), the “AE incidence: Gastrointestinal disorders” value ([4]; single dose 300 mg, N = 10) was 4 (40.0) n (%) and the “AE incidence: General disorders and administration site conditions” value ([4]; single dose 300 mg, N = 10) was 3 (30.0) n (%). For the same compound, the “AE incidence: Nervous system disorders” value ([4]; single dose 300 mg, N = 10) was 4 (40.0) n (%), the “AE incidence: Renal and urinary disorders” value ([4]; single dose 300 mg, N = 10) was 0 (0.0) n (%) and the “AE incidence: Respiratory” value ([4]; single dose 300 mg, N = 10) was 2 (20.0) n (%). The “AE incidence: Skin and subcutaneous tissue disorders” value ([4]; single dose 300 mg, N = 10) was 3 (30.0) n (%), the “Participants with at least one AE” value ([4]; single dose 300 mg, N = 10) was 10 (100.0) n (%) and the “AE incidence: Blood and lymphatic system disorders” value ([4]; single dose 750 mg, N = 11) was 0 (0.0) n (%). For the same compound, the “AE incidence: Cardiac disorders” value ([4]; single dose 750 mg, N = 11) was 0 (0.0) n (%), the “AE incidence: Gastrointestinal disorders” value ([4]; single dose 750 mg, N = 11) was 3 (27.3) n (%) and the “AE incidence: General disorders and administration site conditions” value ([4]; single dose 750 mg, N = 11) was 3 (27.3) n (%). For the same compound, the “AE incidence: Nervous system disorders” value ([4]; single dose 750 mg, N = 11) was 7 (63.6) n (%), the “AE incidence: Renal and urinary disorders” value ([4]; single dose 750 mg, N = 11) was 1 (9.1) n (%) and the “AE incidence: Respiratory” value ([4]; single dose 750 mg, N = 11) was 0 (0.0) n (%). The “AE incidence: Skin and subcutaneous tissue disorders” value ([4]; single dose 750 mg, N = 11) was 1 (9.1) n (%) and the “Participants with at least one AE” value ([4]; single dose 750 mg, N = 11) was 9 (81.8) n (%).
